Source: ChEMBL document CHEMBL5653615 (J Biol Chem, 2013)

Assays:
[1] = target: Casein kinase I isoform gamma-3 (Homo sapiens) (UniProt Q9Y6M4); experiment: Inhibition of human CK1g3 at 500 nM by HotSpot assay relative to control
[2] = target: T1, Ephrin type-B receptor 3 (Homo sapiens) (UniProt P54753); experiment: Inhibition of human EPHB3 at 500 nM by HotSpot assay relative to control
T1 sequence (whole entry): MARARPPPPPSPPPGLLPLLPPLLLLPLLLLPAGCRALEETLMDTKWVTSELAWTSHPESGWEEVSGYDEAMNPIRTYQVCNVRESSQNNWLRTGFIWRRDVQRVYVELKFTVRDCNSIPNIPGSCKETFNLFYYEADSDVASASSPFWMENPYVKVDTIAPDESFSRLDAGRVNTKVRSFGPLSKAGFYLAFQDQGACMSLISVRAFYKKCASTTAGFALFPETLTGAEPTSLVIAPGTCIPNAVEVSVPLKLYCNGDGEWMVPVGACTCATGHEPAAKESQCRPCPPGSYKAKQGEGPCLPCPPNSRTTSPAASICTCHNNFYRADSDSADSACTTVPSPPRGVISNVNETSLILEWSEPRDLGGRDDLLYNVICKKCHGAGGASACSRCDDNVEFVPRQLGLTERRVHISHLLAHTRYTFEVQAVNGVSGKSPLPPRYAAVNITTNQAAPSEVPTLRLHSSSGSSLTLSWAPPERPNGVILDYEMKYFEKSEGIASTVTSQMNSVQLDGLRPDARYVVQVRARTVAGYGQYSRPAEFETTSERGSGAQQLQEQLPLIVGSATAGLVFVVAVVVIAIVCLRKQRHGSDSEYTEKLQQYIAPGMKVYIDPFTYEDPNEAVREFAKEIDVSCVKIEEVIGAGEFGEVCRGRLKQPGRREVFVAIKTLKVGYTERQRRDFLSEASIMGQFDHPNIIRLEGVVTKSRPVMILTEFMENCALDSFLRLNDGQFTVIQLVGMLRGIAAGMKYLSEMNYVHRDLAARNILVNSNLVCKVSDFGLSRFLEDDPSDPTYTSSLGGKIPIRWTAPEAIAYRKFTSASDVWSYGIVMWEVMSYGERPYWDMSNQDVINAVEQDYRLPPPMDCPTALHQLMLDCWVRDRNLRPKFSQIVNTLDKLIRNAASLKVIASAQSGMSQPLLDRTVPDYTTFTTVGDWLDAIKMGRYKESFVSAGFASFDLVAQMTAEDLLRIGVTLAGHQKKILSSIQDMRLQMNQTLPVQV

[3] = target: Fibroblast growth factor receptor 3 (Homo sapiens) (UniProt P22607); experiment: Inhibition of human FGFR3 at 500 nM by HotSpot assay relative to control
[4] = target: MAP/microtubule affinity-regulating kinase 3 (Homo sapiens) (UniProt P27448); experiment: Inhibition of human MARK3 at 500 nM by HotSpot assay relative to control
[5] = target: Myosin light chain kinase 2, skeletal/cardiac muscle (Homo sapiens) (UniProt Q9H1R3); experiment: Inhibition of human MYLK2 at 500 nM by HotSpot assay relative to control
[6] = target: Serine/threonine-protein kinase Nek4 (Homo sapiens) (UniProt P51957); experiment: Inhibition of human NEK4 at 500 nM by HotSpot assay relative to control
[7] = target: T2, cGMP-dependent protein kinase 1 (Homo sapiens) (UniProt Q13976); experiment: Inhibition of human PKG1b at 500 nM by HotSpot assay relative to control
T2 sequence (whole entry): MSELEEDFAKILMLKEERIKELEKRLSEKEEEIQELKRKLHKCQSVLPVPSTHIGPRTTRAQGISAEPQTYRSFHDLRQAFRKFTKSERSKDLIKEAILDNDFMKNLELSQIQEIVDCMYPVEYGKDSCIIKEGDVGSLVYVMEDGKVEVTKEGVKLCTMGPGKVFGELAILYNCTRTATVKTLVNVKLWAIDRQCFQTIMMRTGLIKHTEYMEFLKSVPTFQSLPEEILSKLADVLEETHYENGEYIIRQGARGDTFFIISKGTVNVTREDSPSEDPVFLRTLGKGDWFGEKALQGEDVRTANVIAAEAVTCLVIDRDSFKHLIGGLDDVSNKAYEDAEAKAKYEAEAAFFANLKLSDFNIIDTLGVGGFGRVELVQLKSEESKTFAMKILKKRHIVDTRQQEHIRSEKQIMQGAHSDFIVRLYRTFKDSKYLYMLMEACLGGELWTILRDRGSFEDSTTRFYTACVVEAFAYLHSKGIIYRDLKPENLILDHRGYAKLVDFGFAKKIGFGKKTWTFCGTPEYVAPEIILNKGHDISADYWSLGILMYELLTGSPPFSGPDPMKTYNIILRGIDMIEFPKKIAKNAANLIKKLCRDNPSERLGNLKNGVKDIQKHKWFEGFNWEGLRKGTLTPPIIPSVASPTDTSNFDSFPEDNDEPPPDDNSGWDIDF

[8] = target: T3, Serine/threonine-protein kinase Sgk3 (Homo sapiens) (UniProt Q96BR1); experiment: Inhibition of human SGKL at 500 nM by HotSpot assay relative to control
T3 sequence (whole entry): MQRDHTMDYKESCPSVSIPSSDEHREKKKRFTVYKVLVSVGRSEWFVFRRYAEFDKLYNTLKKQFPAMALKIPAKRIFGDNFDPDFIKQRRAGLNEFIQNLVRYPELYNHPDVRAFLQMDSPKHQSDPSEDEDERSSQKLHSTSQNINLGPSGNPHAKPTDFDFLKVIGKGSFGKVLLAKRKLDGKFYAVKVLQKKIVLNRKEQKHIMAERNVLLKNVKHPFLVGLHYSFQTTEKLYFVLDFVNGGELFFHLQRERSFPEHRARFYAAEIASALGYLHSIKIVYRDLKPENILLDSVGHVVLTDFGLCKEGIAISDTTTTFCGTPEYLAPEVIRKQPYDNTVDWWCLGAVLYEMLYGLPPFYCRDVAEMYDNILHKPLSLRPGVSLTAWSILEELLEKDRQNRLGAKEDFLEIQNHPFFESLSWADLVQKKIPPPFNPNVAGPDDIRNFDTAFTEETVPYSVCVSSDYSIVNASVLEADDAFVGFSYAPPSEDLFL

Serine/threonine-protein kinase Nek4 (Homo sapiens), sequence (P51957 whole entry, looked up): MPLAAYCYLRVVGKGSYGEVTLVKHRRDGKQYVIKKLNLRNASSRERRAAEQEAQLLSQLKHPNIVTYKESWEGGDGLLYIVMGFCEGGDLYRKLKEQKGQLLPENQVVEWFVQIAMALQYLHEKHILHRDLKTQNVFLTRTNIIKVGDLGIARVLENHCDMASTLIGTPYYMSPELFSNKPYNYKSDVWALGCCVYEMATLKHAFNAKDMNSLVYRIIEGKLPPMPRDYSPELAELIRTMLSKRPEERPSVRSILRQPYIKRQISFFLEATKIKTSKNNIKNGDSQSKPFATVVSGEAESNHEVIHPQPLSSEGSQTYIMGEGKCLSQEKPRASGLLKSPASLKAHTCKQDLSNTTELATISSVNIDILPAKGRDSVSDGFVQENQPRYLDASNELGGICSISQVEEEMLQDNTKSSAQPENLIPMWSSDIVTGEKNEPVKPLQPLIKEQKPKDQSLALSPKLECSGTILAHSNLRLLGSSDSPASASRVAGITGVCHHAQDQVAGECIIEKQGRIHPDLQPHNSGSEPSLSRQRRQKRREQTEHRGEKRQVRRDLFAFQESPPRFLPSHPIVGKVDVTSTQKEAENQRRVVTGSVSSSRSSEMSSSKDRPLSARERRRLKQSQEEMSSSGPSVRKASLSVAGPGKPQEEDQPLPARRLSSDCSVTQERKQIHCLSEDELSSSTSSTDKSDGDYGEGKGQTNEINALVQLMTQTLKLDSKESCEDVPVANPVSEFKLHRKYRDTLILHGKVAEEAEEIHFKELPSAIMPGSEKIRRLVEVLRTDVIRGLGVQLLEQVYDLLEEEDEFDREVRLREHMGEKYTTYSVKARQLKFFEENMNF
Myosin light chain kinase 2, skeletal/cardiac muscle (Homo sapiens), sequence (Q9H1R3 whole entry): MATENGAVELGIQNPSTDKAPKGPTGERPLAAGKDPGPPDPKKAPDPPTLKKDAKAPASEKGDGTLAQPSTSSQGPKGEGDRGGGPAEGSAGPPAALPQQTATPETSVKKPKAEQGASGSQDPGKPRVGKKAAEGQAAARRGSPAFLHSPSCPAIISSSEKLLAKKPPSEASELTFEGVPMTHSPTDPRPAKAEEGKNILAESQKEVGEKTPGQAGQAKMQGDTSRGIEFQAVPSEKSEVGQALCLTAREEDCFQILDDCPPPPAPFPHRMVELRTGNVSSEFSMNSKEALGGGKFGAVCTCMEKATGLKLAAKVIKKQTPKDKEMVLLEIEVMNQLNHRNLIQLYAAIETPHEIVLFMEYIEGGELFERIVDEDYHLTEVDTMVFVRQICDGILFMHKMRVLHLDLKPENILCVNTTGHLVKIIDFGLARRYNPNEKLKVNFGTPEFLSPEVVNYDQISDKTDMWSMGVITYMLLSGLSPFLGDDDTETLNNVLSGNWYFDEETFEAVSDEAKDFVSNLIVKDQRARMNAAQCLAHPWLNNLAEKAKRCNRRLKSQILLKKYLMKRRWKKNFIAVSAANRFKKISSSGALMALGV
Casein kinase I isoform gamma-3 (Homo sapiens), sequence (Q9Y6M4 whole entry, looked up, canonical isoform): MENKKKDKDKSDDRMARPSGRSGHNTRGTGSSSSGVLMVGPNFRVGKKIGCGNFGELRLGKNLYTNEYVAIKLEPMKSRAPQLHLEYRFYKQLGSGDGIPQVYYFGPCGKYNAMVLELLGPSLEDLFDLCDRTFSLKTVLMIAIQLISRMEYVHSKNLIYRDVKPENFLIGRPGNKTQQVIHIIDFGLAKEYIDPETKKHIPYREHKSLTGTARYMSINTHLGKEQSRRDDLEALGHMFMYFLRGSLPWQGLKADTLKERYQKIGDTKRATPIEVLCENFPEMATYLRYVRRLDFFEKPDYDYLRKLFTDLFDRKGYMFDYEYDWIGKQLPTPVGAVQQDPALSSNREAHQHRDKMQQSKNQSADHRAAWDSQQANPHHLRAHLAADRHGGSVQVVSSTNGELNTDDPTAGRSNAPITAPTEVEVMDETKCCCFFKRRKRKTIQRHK
MAP/microtubule affinity-regulating kinase 3 (Homo sapiens), sequence (P27448 whole entry, looked up): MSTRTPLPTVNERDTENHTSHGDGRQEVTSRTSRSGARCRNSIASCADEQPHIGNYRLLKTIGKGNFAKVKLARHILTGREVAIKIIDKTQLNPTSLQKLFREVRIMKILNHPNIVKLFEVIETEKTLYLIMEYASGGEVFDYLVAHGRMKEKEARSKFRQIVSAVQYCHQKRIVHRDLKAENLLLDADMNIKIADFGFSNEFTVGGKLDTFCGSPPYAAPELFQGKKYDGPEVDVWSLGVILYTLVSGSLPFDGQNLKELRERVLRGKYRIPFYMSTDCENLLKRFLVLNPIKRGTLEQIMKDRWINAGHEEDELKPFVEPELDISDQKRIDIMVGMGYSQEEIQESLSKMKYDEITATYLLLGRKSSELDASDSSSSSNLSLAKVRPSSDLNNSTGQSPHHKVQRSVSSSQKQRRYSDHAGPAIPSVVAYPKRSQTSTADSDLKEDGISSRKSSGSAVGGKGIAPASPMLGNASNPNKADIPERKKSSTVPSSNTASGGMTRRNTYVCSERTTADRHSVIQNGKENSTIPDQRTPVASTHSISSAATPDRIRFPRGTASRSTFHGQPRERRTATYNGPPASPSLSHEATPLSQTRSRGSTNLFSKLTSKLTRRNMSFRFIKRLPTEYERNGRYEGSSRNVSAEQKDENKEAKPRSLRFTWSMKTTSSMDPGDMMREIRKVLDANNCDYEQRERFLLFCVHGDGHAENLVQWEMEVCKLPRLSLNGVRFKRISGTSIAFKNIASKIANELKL
Fibroblast growth factor receptor 3 (Homo sapiens), sequence (P22607 23-806 limits assumed): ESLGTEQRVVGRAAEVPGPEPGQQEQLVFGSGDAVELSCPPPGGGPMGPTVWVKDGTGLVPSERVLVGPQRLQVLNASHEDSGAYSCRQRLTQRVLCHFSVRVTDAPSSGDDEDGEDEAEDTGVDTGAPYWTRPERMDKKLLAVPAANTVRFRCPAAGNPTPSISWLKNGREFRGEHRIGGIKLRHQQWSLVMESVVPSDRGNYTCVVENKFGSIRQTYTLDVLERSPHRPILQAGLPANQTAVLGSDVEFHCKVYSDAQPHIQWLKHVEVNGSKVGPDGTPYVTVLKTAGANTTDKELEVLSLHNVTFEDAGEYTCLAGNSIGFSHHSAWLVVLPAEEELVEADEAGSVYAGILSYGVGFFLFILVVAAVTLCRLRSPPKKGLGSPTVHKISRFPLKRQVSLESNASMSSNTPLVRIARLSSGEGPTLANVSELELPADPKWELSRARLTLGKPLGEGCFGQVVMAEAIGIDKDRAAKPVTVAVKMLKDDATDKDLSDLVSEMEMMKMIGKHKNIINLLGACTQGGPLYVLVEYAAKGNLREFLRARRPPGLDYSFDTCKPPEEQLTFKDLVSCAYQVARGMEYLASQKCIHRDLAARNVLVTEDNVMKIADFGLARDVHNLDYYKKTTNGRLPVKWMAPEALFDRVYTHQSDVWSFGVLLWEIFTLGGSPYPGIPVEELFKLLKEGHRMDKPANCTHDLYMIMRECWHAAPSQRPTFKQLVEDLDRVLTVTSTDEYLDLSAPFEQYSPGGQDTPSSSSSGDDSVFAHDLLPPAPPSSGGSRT

In the case of `Oc1n[nH]c2nnc(-c3c(-c4ccccc4)nn4ccccc34)cc12`, the inhibition [1] is reported as -4.44%, the inhibition [2] is reported as -1.08% and the inhibition [3] is reported as -3.4%. It also gave an inhibition [4] of -2.48%, an inhibition [5] of -2.71% and an inhibition [6] of 5.04%. It also gave an inhibition [7] of 10.6% and an inhibition [8] of 0.31%.
`Nc1n[nH]c2nnc(-c3c(-c4ccccc4)nn4ccccc34)cc12` was tested, and the inhibition [1] was 6.29%, the inhibition [2] was 3.21% and the inhibition [3] was -1.72%. The inhibition [4] was 0.66%, the inhibition [5] was -0.61% and the inhibition [6] was 11.6%. For the same molecule, the inhibition [7] was 10.5% and the inhibition [8] was 9.81%.
